Data reported in paper PMC10887108, “Novel Brain-Penetrant, Small-Molecule Tubulin Destabilizers for the Treatment of Glioblastoma” (Biomedicines, 2024).
In brackets after ≈: the same amount, converted by molar mass. Read-outs that look alike come from different tables or passages of the source.

Key:
[1] = Kinetic solubility in phosphate buffer; type: physicochemical; conditions: 100 mM phosphate buffer, 1% DMSO
Method: Kinetic solubility was determined in phosphate buffer. The compound (4 µL, 10 mM DMSO) was added to the buffer (396 μL 100 mM phosphate buffer, final 1% DMSO) and shaken at 1000 rpm at RT for 1 h. Samples were filtered (Millipore MSSLBPC10; Burlington, MA, USA), the primary filtrate was discarded, and the subsequent filtrate was collected. The supernatant solution was diluted 10× with DMSO. Test samples (10 µL) and working standard curve samples were added to the stop solution (100 μL, containing internal standard) and water/0.1% FA (100 μL). Samples were analyzed by LC-MS/MS. Albendazole, propranolol, and 4,5-diphenylimidazole were used as positive controls.

[2] = Plasma protein binding (dialysis); type: in vitro ADME; conditions: range over mouse, rat, and human plasma
Method: Compounds (5 µM/0.2% DMSO) were tested in dialysis chambers. Blank dialysis buffer was added to the receiver side (100 μL), and plasma (100 μL) with test and reference compounds was added to the donor side of the chamber and incubated at 37 °C on an orbital shaker. Plasma was precipitated at 0 and 5 h. Aliquots from donor and receiver sides of the dialysis apparatus (25 μL) were added to sample preparation plates and mixed with aliquots of the opposite matrix (25 μL, blank buffer to plasma and vice versa). Samples were quenched with stop solution (400 μL) containing internal standard, vortexed at 600 rpm for 10 min, and centrifuged at 4000 rpm for 10 min. Supernatants were analyzed by LC-MS. Quinidine and warfarin were used as positive controls.

[3] = Metabolite profiling in cryopreserved hepatocytes; type: in vitro ADME; conditions: mouse, rat, dog, monkey, and human hepatocytes, 120 min
Method: Metabolite profiling was carried out by WuXi DMPK (Nanjing, China). RGN3067 (10 μM) was profiled in CD-1 mice (BioIVT, Westbury, NY, USA), SD rats (BioIVT), beagle dogs (BioIVT), cynomolgus monkeys (Research Institute for Liver Diseases [RILD], Shanghai, China), and human cryopreserved hepatocytes (BioIVT). The positive control was 7-ethoxycoumarin (30 μM). Compounds were added to hepatocytes (400 µL, 1 × 10^6/mL), and reactions were carried out at 37 °C in 5% CO2/saturated humidity for 120 min. Reactions were stopped by the addition of ice-cold ACN (400 μL). Samples were shaken at 300 rpm for 10 min, then centrifuged at 13,000× g for 10 min. Supernatants were evaporated under a stream of N2. Residue from the RGN3067 incubation was reconstituted with ACN: H2O (200 μL, v:v, 3:7), followed by centrifugation at 14,000 rpm for 10 min, and the supernatant was used for qualitative and semi-quantitative analysis using LC-UV/HRMS. A Shimadzu UFLC-20A with autosampler was used for chromatographic separation. Detection and structure were determined using a Thermo Q-Extractive mass spectrometer in full MS/MS^2 scan mode and Xcalibur Data Acquisition and Interpretation Software v4.2.

porcine tubulin = molecular target: T1, porcine tubulin (Sus scrofa, UniProt P02554); test: Tubulin polymerization assay (fluorescent reporter); type: biochemical; conditions: compound 5 μM, porcine tubulin 20 μM, relative to DMSO
T1 construct: purchased Cytoskeleton, Inc. BK011P
Method: Tubulin polymerization was evaluated by monitoring the incorporation of a fluorescent reporter into MTs during polymerization. The tubulin polymerization assay kit (Cytoskeleton, Inc. BK011P; Denver, CO, USA) was used according to the manufacturer’s instructions. Briefly, the tubulin reaction mix was kept on ice until immediately prior to use.
(A,B) Representative tubulin polymerization plots and data quantification. […] (C) Immunofluorescence staining of β-tubulin in U87 glioblastoma cells. […] Images were captured using an Operetta confocal microscope at 40× magnification. Scale bar, 10 μm. […] Data was collected with a BD FACS Canto II Flow Cytometer and analyzed using the BD FACSDiva software. (E) The percentage of cells in G1, S, and G2/M phases from the histograms in (D). Data are plotted as mean ± SD from at least three independent experiments. Analysis between groups in (B) was performed using a one-way ANOVA with Tukey’s multiple comparisons test.

[4] = molecular target: T2, Porcine tubulin (colchicine binding site) (Sus scrofa, UniProt P02554); test: Colchicine competitive binding assay (fluorescence); conditions: compound 50 µM, colchicine 10 μM, tubulin 20 μM
T2 construct: purchased Cytoskeleton, Inc. T240; host or cells: brain tissue (purified)

U87 cells = test: Reversibility (washout) cell viability assay; type: cell-based; conditions: Homo sapiens, U-87 MG
[5] = Brain pharmacokinetics after oral dosing; type: in vivo; conditions: 100 mg/kg oral, CD-1 mice, 1, 4 and 8 h
Method: Brain pharmacokinetic studies were carried out by DMPK at WuXi AppTec, Inc. (Cranbury, NJ, USA). The brain penetrance of RGN3067 was evaluated in three male CD-1 mice. RGN3067 was formulated as a 10 mg/mL solution (20% DMSO, 80% PEG400: PVP 95:5) and administered by oral gavage at a dose of 100 mg/kg. Plasma and brain samples were collected at 1, 4, and 8 h. Samples were analyzed by LC-MS/MS. A calibration curve was established using Waters ACQUITY UPLC BEH C18 column and formic acid in water and formic acid in acetonitrile as mobile phase. Tolbutamide and labetalol were used as internal standards for LC-MS/MS analysis. Compound was detected using electrospray ionization (ESI) positive detection. Pharmacokinetic parameters were calculated using the PO-noncompartmental linear model in Phoenix WinNonlin software v8.3 (Certara, Princeton, NJ, USA).

[6] = tested on: GBM12 patient-derived xenograft; test: Subcutaneous GBM12 PDX efficacy model; type: in vivo, athymic nude female mice; conditions: 100 mg/kg oral BID, 5 days on/2 days off, four cycles
Method: Animal protocols were approved by the Animal Care and Use Committee (ACUC) of the institutes and CRO labs. All studies were performed in compliance with the guidelines. GBM12 cells (5 × 10^6) were injected subcutaneously into athymic nude female mice aged 4–6 weeks. Subcutaneous (SC) tumor size was measured using an external caliper. The greatest longitudinal diameter (length) and the greatest transverse diameter (width) were determined while mice were scruffed and conscious. Tumor volume was calculated by the modified ellipsoidal formula: V = ½ (Length × Width^2). RGN3067 solution was prepared for each mouse. RGN3067 (9.91 mg) was dissolved in DMSO (17 µL) by vortexing for 30–60 s. Approximately 69 μL of PEG400: PVP (95:5, Sigma-Aldrich; St. Louis, MO, USA) solution was added and vortexed.
After tumors reached 100–150 mm^3, mice were dosed with RGN3067 solution (43 µL, 100 mg/kg) or vehicle control twice daily by oral gavage (total dose was 200 mg/kg). Mice were dosed using cycles of 5 days on/2 days off, for a total of four cycles. Mice were euthanized once the tumor reached 2000 mm^3.

Q: What does the source list for `CO[C@H]1C[C@@H](C(=O)NC(=O)Nc2ccc(Oc3ccc(Cl)cn3)c(C)c2)C1` [RGN3067]?
A: solubility kinetic at 1 h [1]: 5.7 µM (≈ 2.22 µg/mL); fraction unbound at 5 h, 5 µM [2]: 0.018 to 0.026; number of metabolites detected and identified [3]: 10; reduction in tubulin polymerization (AUC) (porcine tubulin): 49%; reduction of colchicine–tubulin fluorescence relative to control [4]: 24%; IC50 (U87 cells; U87, compound left in medium, 72 h, read-out: IC50 cell viability, no-washout): 571 nM; IC50 (U87 cells; U87, compound washed out after 6 h, then 72 h, read-out: IC50 cell viability, after washout): > 10000 nM; distribution in plasma and brain [5]: equal distribution in plasma and brain at all time points; behavior, appearance and weight loss [6]: No changes in behavior or appearance (hair and skin) or statistically significant weight loss was observed; inhibition of tumor growth (tumor volume) ([6]; from day 14 to end of study): statistically significant inhibition of tumor growth
